Columns and labels:
[1] = less potent than adrenaline; cited from earlier work
[2] = test system: electrically stimulated median arteria of rabbit ear; assay: Inhibition of contraction induced by electrical stimulation, median arteria of rabbit ear; settings: for IC50: Oryctolagus cuniculus, concentrations between 0.01 and 10 μM, read-out: ED50 in inhibiting the contraction induced by electrical stimulation
anesthetized dog = assay: Hemodynamic parameters in the anesthetized dog after intravenous infusion; type: in vivo; settings: for effect on the heart rate: doses of 1, 2.5 and 5 μg/kg/min, in words; for Average arterial pressure / Heart rate / Renal art. flow / Renal resistances: measured 5 minutes after infusion, average ± SE
Text: Dopamine and epinine have been compared after intravenous infusion at different doses in the anesthetized dog.

SMILES	pressor potency relative to adrenaline [1]	IC50 [2]	activity relative to dopamine (presynaptic DA2 receptors) ([2]; higher than that of dopamine)	effect on the heart rate (anesthetized dog)	Average arterial pressure (anesthetized dog; infusion 0.50 μg/kg/min)	Heart rate (anesthetized dog; infusion 0.50 μg/kg/min)	Renal art. flow (anesthetized dog; infusion 0.50 μg/kg/min)	Renal resistances (anesthetized dog; infusion 0.50 μg/kg/min)	Average arterial pressure (anesthetized dog; infusion 1.00 μg/kg/min)	Heart rate (anesthetized dog; infusion 1.00 μg/kg/min)	Renal art. flow (anesthetized dog; infusion 1.00 μg/kg/min)	Renal resistances (anesthetized dog; infusion 1.00 μg/kg/min)	Average arterial pressure (anesthetized dog; infusion 2.50 μg/kg/min)	Heart rate (anesthetized dog; infusion 2.50 μg/kg/min)	Renal art. flow (anesthetized dog; infusion 2.50 μg/kg/min)	Renal resistances (anesthetized dog; infusion 2.50 μg/kg/min)	Average arterial pressure (anesthetized dog; infusion 5.00 μg/kg/min)	Heart rate (anesthetized dog; infusion 5.00 μg/kg/min)	Renal art. flow (anesthetized dog; infusion 5.00 μg/kg/min)	Renal resistances (anesthetized dog; infusion 5.00 μg/kg/min)
CNCCc1ccc(O)c(O)c1 [epinine, N-methyl-3,4-dihydroxyphenethylamine]	about ten	0.077 µM	30 times	moderate but significant reduction	136 ± 9 mmHg	164 ± 10	153.5 ± 18.5 mL/min	0.990 ± 0.145 mmHg/ml/min	136 ± 8 mmHg	161 ± 11	157.5 ± 28.1 mL/min	0.971 ± 0.185 mmHg/ml/min	135 ± 7 mmHg	156 ± 12	159.8 ± 29.3 mL/min	0.954 ± 0.183 mmHg/ml/min	139 ± 6 mmHg	149 ± 11	164.3 ± 29.7 mL/min	0.965 ± 0.181 mmHg/ml/min
NCCc1ccc(O)c(O)c1 [dopamine, reference compound]		2.39 µM		slightly increased					106 ± 7 mmHg	144 ± 10	127 ± 20.8 mL/min	1.120 ± 0.149 mmHg/ml/min	105 ± 6 mmHg	146 ± 8	132 ± 21.0 mL/min	1.053 ± 0.146 mmHg/ml/min	109 ± 6 mmHg	151 ± 8	122.9 ± 19.8 mL/min	1.136 ± 0.261 mmHg/ml/min

From patent publication US4628064A, “Epinine and the therapeutic use thereof” (SIMES, Societa Italiana Medicinali e Sintetici S.p.A., priority 1983, dated 1986)
